In US9334269B2, “Carboxamides as inhibitors of voltage-gated sodium channels” (AMGEN INC., priority 2010, dated 2016):

molecular target: T1, human Nav1.7 (hNav1.7) (Homo sapiens, UniProt Q15858); assay: hNav1.7 whole-cell patch-clamp electrophysiology (automated PatchXpress 7000A or manual) in stably expressing 293 cells; assay type: cell-based; settings: average IC50
T1 construct: expressed in transfected cells
Procedure: Compounds were tested on human Nav1.7 (hNav1.7) expressed stably in 293 cells, which have no endogenous sodium channels. Two forms of whole-cell patch-clamp assays were used. In both, peak current through Nav1.7 was evoked by a depolarizing voltage pulse, and currents were monitored as a function of time in response to exposure to several different concentrations of drug. Automated electrophysiology uses the PatchXpress 7000A system. Up to sixteen cells at a time were voltage-clamped in parallel, and the steady-state voltage dependence of inactivation was determined experimentally for each cell. For each cell, fractional inactivation was set at 20%, and peak current through Nav1.7 as a function of time was measured in response to increasing concentrations of test compound. Manual electrophysiology refers to conventional whole-cell patch-clamping (Hamill et al., 1981). After formation of the whole-cell clamp, cells were lifted off the bottom of the dish with the patch pipette and positioned directly in front of an array of glass microperfusion tubes each with internal diameter about 250 microns, with individual compound concentrations flowing from each tube. Current as a function of time in response to increasing drug concentrations was measured with Nav1.7 fully in the resting state (holding voltage set to −140 mV) and on the same cells with the holding voltage set to produce about 20% inactivation. Compounds were not applied for a prespecified time, but for as long as required to achieve a stable level of block. For both forms of electrophysiology, offline analysis was used to correct for rundown of channel current and to determine percent inhibition as a function of drug concentration. IC50 were determined by fitting to the Hill equation.

T1 sequence (Q15858 whole entry): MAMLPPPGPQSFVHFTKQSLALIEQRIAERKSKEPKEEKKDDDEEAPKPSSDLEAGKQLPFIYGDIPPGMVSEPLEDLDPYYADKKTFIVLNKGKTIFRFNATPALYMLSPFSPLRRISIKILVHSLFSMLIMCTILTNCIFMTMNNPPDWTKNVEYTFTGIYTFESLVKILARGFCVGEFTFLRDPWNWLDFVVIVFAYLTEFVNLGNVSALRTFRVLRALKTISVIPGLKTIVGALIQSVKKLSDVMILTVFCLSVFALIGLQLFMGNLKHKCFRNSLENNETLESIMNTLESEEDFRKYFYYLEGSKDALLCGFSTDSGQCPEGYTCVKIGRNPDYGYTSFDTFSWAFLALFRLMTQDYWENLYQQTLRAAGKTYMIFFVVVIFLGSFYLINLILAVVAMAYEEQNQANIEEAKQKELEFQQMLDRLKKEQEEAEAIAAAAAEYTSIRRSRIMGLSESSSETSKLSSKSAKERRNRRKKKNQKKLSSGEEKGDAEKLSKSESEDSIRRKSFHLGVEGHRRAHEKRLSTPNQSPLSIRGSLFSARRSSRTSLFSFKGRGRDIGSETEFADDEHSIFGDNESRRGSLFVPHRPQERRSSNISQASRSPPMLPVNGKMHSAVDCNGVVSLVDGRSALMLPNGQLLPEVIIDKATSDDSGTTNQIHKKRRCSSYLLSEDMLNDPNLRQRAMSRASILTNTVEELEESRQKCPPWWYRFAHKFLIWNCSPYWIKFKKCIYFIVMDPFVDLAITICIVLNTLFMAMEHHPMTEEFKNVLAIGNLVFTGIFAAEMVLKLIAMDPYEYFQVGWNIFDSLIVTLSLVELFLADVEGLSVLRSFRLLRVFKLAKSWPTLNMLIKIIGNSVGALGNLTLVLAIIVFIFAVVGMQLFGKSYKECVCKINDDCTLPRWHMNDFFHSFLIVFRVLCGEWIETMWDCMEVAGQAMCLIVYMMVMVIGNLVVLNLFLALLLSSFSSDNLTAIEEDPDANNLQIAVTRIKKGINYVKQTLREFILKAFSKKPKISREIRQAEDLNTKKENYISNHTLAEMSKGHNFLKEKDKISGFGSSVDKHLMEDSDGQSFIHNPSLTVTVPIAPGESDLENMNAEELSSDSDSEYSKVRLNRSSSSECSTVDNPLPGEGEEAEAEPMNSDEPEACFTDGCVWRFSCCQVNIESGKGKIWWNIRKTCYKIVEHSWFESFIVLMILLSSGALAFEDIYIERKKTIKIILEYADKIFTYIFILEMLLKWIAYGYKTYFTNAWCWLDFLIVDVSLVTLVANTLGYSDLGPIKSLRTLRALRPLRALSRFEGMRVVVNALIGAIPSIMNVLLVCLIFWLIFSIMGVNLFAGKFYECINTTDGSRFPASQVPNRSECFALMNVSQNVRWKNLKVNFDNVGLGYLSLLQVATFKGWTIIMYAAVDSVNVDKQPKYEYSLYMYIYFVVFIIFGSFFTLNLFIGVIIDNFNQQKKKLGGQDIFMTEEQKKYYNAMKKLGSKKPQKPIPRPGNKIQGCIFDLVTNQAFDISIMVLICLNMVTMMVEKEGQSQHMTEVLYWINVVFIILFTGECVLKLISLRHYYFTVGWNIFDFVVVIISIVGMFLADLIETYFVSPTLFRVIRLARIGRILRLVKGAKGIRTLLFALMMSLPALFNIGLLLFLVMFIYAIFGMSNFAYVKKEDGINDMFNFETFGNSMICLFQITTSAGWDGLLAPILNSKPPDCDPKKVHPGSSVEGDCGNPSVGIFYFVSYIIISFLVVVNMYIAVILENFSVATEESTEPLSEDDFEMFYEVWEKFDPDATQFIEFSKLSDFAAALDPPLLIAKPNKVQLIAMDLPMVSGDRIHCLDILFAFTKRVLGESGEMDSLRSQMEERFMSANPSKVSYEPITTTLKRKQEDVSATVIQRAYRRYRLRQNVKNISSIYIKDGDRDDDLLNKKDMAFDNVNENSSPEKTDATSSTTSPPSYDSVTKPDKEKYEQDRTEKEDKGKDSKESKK

IC50 [µM] | Structure (SMILES)
> 30 | Cc1ccc(N2CCN(c3ncnc(Nc4ccc(F)c(C(N)=O)c4)n3)CC2)cc1C [Example 295]
> 30 | CNC(=O)c1cccc(Nc2ncc(F)c(N3CC(Oc4ccc(F)cc4)C3)n2)c1 [Example 285]
20.9 | CNC(=O)c1cccc(Nc2ncnc(N3CCc4c(cnn4-c4ccccc4)C3)n2)c1 [Example 268]
18.9 | CNC(=O)c1cccc(Nc2ncnc(N3CC(Oc4ccc(C5CCCC5)cc4)C3)n2)c1 [Example 264]
> 30 | CNC(=O)c1cccc(Nc2ncnc(N3CC(Oc4ccccc4C#N)C3)n2)c1 [Example 297]
> 30 | CNC(=O)c1cccc(Nc2ncnc(N3CCc4cc(C#N)ccc4C3)n2)c1 [Example 299]

same assay, conditions: average IC50, human Nav1.7

IC50 [µM] | Structure (SMILES)
2.29 | CNC(=O)c1cccc(Nc2ncnc(N3CCN(S(=O)(=O)c4ccc(OC(F)(F)F)cc4)CC3)n2)c1 [Example 126]
4.85 | CNC(=O)c1cccc(Nc2ncnc(N3CCN(Cc4ccc(OC(F)(F)F)cc4)CC3)n2)c1 [Example 180]
2.92 | CNC(=O)c1cccc(Nc2ncnc(N3CCC(C#N)(c4ccc(Cl)cc4)CC3)n2)c1 [Example 147]
0.98 | CNC(=O)c1cccc(Nc2ncnc(N3CCc4cc(OCCC(F)(F)F)ccc4C3)n2)c1 [Example 77]
3.17 | CNC(=O)c1cccc(Nc2ncnc(N3CC(Oc4cc(C)ccc4F)C3)n2)c1 [Example 155]
1.82 | CNC(=O)c1cccc(Nc2ncnc(N3CC(OCc4ccc(Cl)cc4)C3)n2)c1 [Example 113]
4.05 | CNC(=O)c1cccc(Nc2ncnc(N3CCC(Oc4ccc(Cl)c(OC(F)(F)F)c4)CC3)n2)c1 [Example 166]
1.23 | CNC(=O)c1cccc(Nc2ncnc(N3CC(Oc4ccc(OC)cc4)C3)n2)c1 [Example 87]
4.56 | CNC(=O)c1cc(F)cc(Nc2ncnc(N3CC(COc4ccc(Cl)cc4)C3)n2)c1 [Example 173]
4.93 | CNC(=O)c1cccc(Nc2ncnc(N3CC(Oc4ccccc4OC(F)(F)F)C3)n2)c1 [Example 181]
9.87 | CNC(=O)c1cccc(Nc2ncnc(N3CCc4cc(OCCOC)ccc4C3)n2)c1 [Example 233]
0.81 | CNC(=O)c1cccc(Nc2ncnc(N3CC(Oc4ccc(F)cc4)C3)n2)c1 [Example 61]
0.86 | CNC(=O)c1cccc(Nc2ncnc(N3CCC(Oc4ccc(OC(F)(F)F)c(F)c4)CC3)n2)c1 [Example 68]
0.65 | CNC(=O)c1cccc(Nc2ncnc(N3CC(Oc4ccc(Cl)cc4Cl)C3)n2)c1 [Example 51]
0.31 | CNC(=O)c1cccc(Nc2ncnc(N3CC(Oc4cc(Cl)ccc4Cl)C3)n2)c1 [Example 18]
0.4 | COCCNC(=O)c1cccc(Nc2ncnc(N3CC(Oc4ccc(Cl)cc4)C3)n2)c1 [Example 28]
0.33 | CNC(=O)c1cccc(Nc2ncnc(N3CC(Oc4ccc(Cl)cc4F)C3)n2)c1 [Example 21]
7.93 | CNC(=O)c1cccc(Nc2ncnc(N3CCC(OCc4ccccc4)CC3)n2)c1 [Example 206]
0.75 | CNC(=O)c1cccc(Nc2cccc(N3CC(Oc4ccc(F)cc4)C3)n2)c1 [Example 56]
0.76 | CNC(=O)c1cc(Nc2ncnc(N3CC(Oc4ccc(F)cc4)C3)n2)ccc1F [Example 57]
0.4 | CNC(=O)c1cc(Nc2ncnc(N3CCC(c4nc(-c5ccccc5)cs4)CC3)n2)ccc1Cl [Example 27]
8.6 | CNC(=O)c1cccc(Nc2ncnc(N3CCc4cc(C(F)(F)F)ccc4C3)n2)c1 [Example 216]
0.52 | CNC(=O)c1cccc(Nc2ncnc(N3CCc4cc(OCC(F)(F)F)ccc4C3)n2)c1 [Example 41]
7.12 | CNC(=O)c1cccc(Nc2ncnc(N3CCN(c4ccc(OC(F)(F)F)cc4)CC3)n2)c1C [Example 202]
3.75 | CNC(=O)c1cc(Nc2ncnc(NCCCOc3cccc(C(F)(F)F)c3)n2)ccc1Cl [Example 164]
0.35 | CNC(=O)c1cccc(Nc2ncnc(N3CC(Oc4ccc5c(c4)CCC5)C3)n2)c1 [Example 22]
4.22 | CNC(=O)c1cccc(Nc2ncnc(N3CCC(c4nc(-c5ccccc5)c(C)s4)CC3)n2)c1 [Example 168]
8.59 | CNC(=O)c1cccc(Nc2ncnc(N3CCC(c4ccc(C#N)c(C(F)(F)F)c4)CC3)n2)c1 [Example 215]

IC50 [µM] | Structure (SMILES)
2 | CNC(=O)c1cc(F)cc(Nc2ncnc(N3CCN(c4cccc(C)n4)CC3)n2)c1 [Example 116]
1.61 | CNC(=O)c1cccc(Nc2ncnc(N3CCN(c4ccc(Cl)cn4)CC3)n2)c1 [Example 108]
3.36 | CNC(=O)c1cccc(Nc2ncnc(N3CCN(c4ccc(Cl)cc4)CC3)n2)c1 [Example 157]
2.8 | CNC(=O)c1cccc(Nc2ncnc(N3CCC(COc4ccccc4)CC3)n2)c1 [Example 143]
6.03 | CNC(=O)c1cccc(Nc2ncnc(N3CCN(c4ccc(C#N)cc4)CC3)n2)c1 [Example 195]
0.84 | CNC(=O)c1cccc(Nc2ncnc(N3CCC(c4ccccc4)CC3)n2)c1 [Example 65]
1.29 | CNC(=O)c1cccc(Nc2ncnc(N3CCc4cc(C5CC5)ccc4C3)n2)c1 [Example 92]
5.1 | CNC(=O)c1cccc(Nc2ncnc(N3CC(C)(Oc4ccc(C)cc4)C3)n2)c1 [Example 182]
2.58 | CNC(=O)c1cccc(Nc2ncnc(N3CC(Oc4cccc(C(C)(C)C)c4)C3)n2)c1 [Example 134]
0.49 | CNC(=O)c1cccc(Nc2ncnc(N3CCC(C(=O)c4ccc(Cl)cc4)CC3)n2)c1 [Example 36]
5.28 | CNC(=O)c1cccc(Nc2ncnc(N3CCc4cc(C)ccc4C3)n2)c1 [Example 185]
0.47 | CNC(=O)c1cccc(Nc2ncnc(N3CCN(c4ccc(C)cc4)CC3)n2)c1 [Example 34]
1.32 | CNC(=O)c1cccc(Nc2ncnc(N3CC(OCc4ccc(OC(F)(F)F)cc4)C3)n2)c1 [Example 94]
0.3 | CCc1cccc(OC2CN(c3ncnc(Nc4cccc(C(=O)NC)c4)n3)C2)c1 [Example 17]
2.73 | CNC(=O)c1cccc(Nc2ncnc(N3CCc4c(cccc4OCC(F)(F)F)C3)n2)c1 [Example 137]
1.78 | CNC(=O)c1cc(F)cc(Nc2ncnc(N3CC(COc4ccc(C(F)(F)F)cc4)C3)n2)c1 [Example 112]
2.74 | CNC(=O)c1cccc(Nc2ncnc(N3CCc4c(cccc4OC)C3)n2)c1 [Example 138]
1.87 | CNC(=O)c1cccc(Nc2ncnc(N3CCN(c4ccccc4)CC3)n2)c1 [Example 115]
12.8 | CNC(=O)c1cccc(Nc2ncnc(N3CC(COc4ccccc4Cl)C3)n2)c1 [Example 247]
2.74 | CNC(=O)c1cccc(Nc2ncnc(N3CCC(n4cc(-c5ccccc5)cn4)CC3)n2)c1 [Example 139]
0.9 | CNC(=O)c1cccc(Nc2ccnc(N3CC(Oc4ccc(F)cc4)C3)n2)c1 [Example 71]
0.28 | CNC(=O)c1cc(Nc2ncnc(N3CC(Oc4ccc(Cl)cc4F)C3)n2)ccc1F [Example 14]
0.28 | CNC(=O)c1cccc(Nc2ncnc(N3CC(Oc4ccc(F)c(Cl)c4)C3)n2)c1 [Example 15]
0.45 | CNC(=O)c1cccc(Nc2ncnc(N3CC(Oc4ccccc4)C3)n2)c1 [Example 33]
5.6 | CNC(=O)c1cccc(Nc2ncnc(N3CCN(Cc4ccccc4OC(F)(F)F)CC3)n2)c1 [Example 191]
8.9 | NC(=O)c1cccc(Nc2ncnc(N3CCc4cc(Br)ccc4C3)n2)c1 [Example 221]
17.7 | CNC(=O)c1cccc(Nc2ncnc(N3CCC(COCC4CC4)CC3)n2)c1 [Example 261]

same assay, conditions: human Nav1.7 stably expressed in 293 cells; whole-cell patch clamp; average IC50 from Hill fit

IC50 [µM] | Structure (SMILES)
12.7 | CNC(=O)c1cccc(Nc2cc(N3CC(Oc4ccc(Cl)cc4F)C3)ncn2)c1 [Example Z, 3-((6-(3-(4-chloro-2-fluorophenoxy)-1-azetidinyl)-4-pyrimidinyl)amino)-N-methylbenzamide]
2.26 | CNC(=O)c1cccc(Nc2ccnc(N3CC(Oc4ccc(Cl)cc4F)C3)n2)c1 [Example AJ, 3-((2-(3-(4-chloro-2-fluorophenoxy)-1-azetidinyl)-4-pyrimidinyl)amino)-N-methylbenzamide]
0.52 | CNC(=O)c1cccc(Nc2nccc(N3CC(Oc4ccc(Cl)cc4Cl)C3)n2)c1 [Example AAA, 3-(4-(3-(2,4-dichlorophenoxy)azetidin-1-yl)pyrimidin-2-ylamino)-N-methylbenzamide]
9.53 | CNC(=O)c1cccc(Nc2cccc(N3CC(Oc4ccc(F)cc4)C3)c2)c1 [Example AF, 3-((3-(3-(4-fluorophenoxy)-1-azetidinyl)phenyl)amino)-N-methylbenzamide]

Structure (SMILES) | IC50 [µM]
CNC(=O)c1cccc(Nc2nccc(N3CC(Oc4ccc(Cl)c(C)c4)C3)n2)c1 [Example L, 3-((4-(3-(4-chloro-3-methylphenoxy)-1-azetidinyl)-2-pyrimidinyl)amino)-N-methylbenzamide] | 0.31
CNC(=O)c1cccc(Nc2nccc(N3CC(Oc4ccc(Cl)cc4C)C3)n2)c1 [Example N, 3-((4-(3-(4-chloro-2-methylphenoxy)-1-azetidinyl)-2-pyrimidinyl)amino)-N-methylbenzamide] | 0.26
